ChEMBL document CHEMBL3991601, “The target landscape of clinical kinase drugs” (Science, 2017)
Active and inactive are the calls of the source.

Columns and labels:
Activin receptor type-2B = Activin receptor type-2B (Homo sapiens, UniProt Q13705)
[1] = molecular target: Casein kinase I isoform gamma-1 (Homo sapiens, UniProt Q9HCP0)
[2] = molecular target: T1, ATP-dependent RNA helicase DDX42 (Homo sapiens, UniProt Q86XP3)
T1 sequence (Q86XP3 whole entry): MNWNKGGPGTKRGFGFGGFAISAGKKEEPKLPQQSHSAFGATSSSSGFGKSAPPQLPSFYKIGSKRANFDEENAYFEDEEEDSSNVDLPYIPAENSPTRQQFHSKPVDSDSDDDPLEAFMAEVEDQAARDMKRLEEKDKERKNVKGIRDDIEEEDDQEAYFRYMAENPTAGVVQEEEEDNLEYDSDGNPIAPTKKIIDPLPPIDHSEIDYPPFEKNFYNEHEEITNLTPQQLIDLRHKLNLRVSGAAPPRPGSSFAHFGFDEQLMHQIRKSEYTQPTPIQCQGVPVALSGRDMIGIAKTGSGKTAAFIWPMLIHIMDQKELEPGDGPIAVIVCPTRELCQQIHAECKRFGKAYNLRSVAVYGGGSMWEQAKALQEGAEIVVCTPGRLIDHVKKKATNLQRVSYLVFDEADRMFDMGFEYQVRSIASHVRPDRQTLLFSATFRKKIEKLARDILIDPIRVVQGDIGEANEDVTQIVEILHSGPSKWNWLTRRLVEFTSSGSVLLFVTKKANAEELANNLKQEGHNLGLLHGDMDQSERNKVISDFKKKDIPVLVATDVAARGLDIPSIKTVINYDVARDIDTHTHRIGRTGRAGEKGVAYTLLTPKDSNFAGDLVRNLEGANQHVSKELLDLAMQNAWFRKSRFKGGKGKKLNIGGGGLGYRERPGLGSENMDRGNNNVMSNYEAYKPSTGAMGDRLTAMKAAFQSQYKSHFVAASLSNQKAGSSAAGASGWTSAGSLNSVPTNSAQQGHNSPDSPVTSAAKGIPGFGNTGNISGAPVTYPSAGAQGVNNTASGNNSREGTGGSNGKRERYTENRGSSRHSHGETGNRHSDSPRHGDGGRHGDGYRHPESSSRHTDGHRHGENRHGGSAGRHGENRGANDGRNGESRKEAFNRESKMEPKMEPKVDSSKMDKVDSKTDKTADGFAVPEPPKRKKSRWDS

[3] = molecular target: Epidermal growth factor receptor (Homo sapiens, UniProt P00533)
Epidermal growth factor receptor, sequence (P00533 whole entry): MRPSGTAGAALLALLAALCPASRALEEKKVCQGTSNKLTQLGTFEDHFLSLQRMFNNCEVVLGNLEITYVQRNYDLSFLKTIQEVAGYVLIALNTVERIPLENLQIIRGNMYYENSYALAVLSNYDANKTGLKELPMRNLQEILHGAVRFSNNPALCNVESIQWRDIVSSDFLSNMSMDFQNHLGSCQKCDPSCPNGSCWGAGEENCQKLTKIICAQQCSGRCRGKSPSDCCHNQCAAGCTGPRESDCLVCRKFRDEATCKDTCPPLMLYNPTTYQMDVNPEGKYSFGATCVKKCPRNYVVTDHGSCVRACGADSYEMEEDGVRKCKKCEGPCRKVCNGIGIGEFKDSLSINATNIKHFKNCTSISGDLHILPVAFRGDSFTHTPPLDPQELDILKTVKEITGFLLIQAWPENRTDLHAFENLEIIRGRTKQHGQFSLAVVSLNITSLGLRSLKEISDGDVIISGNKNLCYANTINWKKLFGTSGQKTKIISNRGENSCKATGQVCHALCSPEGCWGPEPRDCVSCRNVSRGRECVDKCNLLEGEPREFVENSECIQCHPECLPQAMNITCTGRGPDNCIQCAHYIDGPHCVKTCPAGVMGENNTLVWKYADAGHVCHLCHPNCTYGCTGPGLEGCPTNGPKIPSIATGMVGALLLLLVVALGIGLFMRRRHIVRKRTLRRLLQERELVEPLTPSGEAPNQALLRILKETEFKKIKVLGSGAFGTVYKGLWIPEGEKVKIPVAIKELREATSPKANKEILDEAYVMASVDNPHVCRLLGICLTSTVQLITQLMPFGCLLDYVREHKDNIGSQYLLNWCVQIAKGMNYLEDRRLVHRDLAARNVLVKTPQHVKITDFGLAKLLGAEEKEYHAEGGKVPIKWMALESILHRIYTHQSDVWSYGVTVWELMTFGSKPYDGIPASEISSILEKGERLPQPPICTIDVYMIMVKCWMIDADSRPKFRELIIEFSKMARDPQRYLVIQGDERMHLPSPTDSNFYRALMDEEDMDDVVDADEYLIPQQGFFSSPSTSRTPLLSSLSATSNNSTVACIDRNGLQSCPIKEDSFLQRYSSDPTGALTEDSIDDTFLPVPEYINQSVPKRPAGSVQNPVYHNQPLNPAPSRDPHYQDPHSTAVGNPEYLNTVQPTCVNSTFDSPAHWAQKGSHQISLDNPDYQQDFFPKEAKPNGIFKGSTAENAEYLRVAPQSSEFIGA

[4] = molecular target: Tyrosine-protein kinase Fyn (Homo sapiens, UniProt P06241)
Glycine--tRNA ligase = molecular target: T2, Glycine--tRNA ligase (Homo sapiens, UniProt P41250)
T2 sequence (P41250 whole entry): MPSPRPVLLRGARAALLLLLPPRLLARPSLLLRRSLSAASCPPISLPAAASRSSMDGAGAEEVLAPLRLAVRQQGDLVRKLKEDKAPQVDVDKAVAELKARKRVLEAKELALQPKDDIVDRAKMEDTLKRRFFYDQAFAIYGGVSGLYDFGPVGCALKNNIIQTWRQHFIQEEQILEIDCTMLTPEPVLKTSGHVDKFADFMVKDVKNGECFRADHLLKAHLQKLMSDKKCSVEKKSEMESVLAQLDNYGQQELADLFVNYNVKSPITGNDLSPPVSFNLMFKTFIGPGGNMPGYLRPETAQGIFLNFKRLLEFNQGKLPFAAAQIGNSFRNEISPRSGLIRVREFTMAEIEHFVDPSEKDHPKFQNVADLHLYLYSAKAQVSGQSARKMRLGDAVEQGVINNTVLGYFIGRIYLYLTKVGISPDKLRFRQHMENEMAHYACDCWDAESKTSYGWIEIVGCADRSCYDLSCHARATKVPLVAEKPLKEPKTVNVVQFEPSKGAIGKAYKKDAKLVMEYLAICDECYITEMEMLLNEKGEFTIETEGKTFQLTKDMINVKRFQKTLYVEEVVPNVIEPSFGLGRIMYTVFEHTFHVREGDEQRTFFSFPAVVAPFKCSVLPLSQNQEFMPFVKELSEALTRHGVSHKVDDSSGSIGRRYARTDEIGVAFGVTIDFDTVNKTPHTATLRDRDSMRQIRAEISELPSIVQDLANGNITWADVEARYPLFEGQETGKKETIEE

[5] = molecular target: Mitogen-activated protein kinase 10 (Homo sapiens, UniProt P53779)
Mitogen-activated protein kinase 10, sequence (P53779 whole entry): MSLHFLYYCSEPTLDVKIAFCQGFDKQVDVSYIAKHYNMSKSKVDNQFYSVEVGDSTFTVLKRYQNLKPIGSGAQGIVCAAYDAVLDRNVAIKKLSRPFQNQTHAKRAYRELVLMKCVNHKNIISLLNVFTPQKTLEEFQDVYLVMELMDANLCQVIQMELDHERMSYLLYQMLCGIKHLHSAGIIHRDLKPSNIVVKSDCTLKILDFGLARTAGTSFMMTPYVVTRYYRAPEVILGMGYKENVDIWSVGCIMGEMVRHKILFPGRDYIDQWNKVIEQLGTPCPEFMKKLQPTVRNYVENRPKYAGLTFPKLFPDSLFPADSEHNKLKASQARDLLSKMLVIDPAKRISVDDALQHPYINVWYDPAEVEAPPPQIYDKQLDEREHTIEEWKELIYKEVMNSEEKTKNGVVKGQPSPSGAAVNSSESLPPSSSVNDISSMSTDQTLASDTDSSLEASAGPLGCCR

[6] = molecular target: Macrophage-stimulating protein receptor (Homo sapiens, UniProt Q04912)
Macrophage-stimulating protein receptor, sequence (Q04912 25-304 limits assumed): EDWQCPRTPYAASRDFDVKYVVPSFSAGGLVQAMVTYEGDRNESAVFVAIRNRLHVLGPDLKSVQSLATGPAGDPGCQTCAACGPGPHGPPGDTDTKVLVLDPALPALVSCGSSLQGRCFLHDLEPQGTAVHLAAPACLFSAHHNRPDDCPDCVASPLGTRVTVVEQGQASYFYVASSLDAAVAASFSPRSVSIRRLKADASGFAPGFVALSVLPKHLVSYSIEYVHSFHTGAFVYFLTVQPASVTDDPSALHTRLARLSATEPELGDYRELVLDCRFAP
Macrophage-stimulating protein receptor, sequence (Q04912 310-1400 limits assumed): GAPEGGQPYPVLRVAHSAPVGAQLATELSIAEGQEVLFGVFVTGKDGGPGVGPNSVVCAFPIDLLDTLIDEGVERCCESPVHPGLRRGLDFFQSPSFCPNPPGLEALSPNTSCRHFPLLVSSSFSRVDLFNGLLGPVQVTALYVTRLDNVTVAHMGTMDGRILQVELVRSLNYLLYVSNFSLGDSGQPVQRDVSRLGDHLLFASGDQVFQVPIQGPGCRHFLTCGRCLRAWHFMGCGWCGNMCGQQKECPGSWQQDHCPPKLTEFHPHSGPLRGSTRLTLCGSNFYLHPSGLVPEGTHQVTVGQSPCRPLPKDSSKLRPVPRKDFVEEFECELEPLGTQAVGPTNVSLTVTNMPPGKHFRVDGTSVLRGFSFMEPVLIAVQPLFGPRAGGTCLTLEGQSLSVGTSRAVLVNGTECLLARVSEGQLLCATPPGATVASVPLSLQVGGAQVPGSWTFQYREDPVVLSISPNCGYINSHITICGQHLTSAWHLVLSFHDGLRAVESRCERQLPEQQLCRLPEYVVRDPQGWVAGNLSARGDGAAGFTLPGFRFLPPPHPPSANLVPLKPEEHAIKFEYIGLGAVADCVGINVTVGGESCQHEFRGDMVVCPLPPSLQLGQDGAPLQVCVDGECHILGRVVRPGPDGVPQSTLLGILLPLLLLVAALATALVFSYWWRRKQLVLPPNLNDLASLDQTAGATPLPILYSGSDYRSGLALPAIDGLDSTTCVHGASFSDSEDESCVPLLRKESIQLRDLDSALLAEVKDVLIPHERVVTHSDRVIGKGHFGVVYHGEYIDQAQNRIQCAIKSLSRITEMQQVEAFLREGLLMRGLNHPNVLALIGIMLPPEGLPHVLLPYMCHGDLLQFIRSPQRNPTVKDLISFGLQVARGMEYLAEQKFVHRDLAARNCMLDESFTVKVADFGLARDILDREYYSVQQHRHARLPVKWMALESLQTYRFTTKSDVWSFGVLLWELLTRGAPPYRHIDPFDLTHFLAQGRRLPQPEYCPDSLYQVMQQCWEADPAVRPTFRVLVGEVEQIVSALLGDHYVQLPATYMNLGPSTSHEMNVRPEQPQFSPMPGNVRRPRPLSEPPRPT

[7] = molecular target: T3, cGMP-dependent protein kinase 1 (Homo sapiens, UniProt Q13976)
T3 sequence (Q13976 whole entry): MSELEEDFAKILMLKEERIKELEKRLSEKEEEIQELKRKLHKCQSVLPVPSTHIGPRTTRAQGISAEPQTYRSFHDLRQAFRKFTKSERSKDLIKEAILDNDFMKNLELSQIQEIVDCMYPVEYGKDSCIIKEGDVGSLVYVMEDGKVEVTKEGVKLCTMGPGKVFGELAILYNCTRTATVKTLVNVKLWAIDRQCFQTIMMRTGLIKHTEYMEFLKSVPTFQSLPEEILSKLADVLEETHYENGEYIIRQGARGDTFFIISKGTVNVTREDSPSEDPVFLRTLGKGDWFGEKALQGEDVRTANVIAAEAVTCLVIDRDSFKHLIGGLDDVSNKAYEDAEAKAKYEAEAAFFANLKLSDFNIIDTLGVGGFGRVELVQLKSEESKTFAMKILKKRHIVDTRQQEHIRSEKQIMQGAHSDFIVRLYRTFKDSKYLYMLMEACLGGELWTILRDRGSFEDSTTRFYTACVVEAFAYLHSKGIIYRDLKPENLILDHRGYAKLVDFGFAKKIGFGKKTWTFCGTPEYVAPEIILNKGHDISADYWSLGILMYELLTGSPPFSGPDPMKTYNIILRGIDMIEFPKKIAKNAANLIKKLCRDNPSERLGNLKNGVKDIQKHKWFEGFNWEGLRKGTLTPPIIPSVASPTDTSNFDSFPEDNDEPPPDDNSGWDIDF

Rab-like protein 3 = molecular target: T4, Rab-like protein 3 (Homo sapiens, UniProt Q5HYI8)
T4 sequence (Q5HYI8 whole entry): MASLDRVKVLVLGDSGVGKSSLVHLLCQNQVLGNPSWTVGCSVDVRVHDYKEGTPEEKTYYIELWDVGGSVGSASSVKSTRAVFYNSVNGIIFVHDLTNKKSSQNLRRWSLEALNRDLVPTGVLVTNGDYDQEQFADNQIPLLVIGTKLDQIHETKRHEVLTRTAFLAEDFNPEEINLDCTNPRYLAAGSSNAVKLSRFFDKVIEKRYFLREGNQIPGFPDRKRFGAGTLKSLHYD

[8] = molecular target: Ribosomal protein S6 kinase alpha-3 (Homo sapiens, UniProt P51812)
Ribosomal protein S6 kinase alpha-3, sequence (P51812 whole entry): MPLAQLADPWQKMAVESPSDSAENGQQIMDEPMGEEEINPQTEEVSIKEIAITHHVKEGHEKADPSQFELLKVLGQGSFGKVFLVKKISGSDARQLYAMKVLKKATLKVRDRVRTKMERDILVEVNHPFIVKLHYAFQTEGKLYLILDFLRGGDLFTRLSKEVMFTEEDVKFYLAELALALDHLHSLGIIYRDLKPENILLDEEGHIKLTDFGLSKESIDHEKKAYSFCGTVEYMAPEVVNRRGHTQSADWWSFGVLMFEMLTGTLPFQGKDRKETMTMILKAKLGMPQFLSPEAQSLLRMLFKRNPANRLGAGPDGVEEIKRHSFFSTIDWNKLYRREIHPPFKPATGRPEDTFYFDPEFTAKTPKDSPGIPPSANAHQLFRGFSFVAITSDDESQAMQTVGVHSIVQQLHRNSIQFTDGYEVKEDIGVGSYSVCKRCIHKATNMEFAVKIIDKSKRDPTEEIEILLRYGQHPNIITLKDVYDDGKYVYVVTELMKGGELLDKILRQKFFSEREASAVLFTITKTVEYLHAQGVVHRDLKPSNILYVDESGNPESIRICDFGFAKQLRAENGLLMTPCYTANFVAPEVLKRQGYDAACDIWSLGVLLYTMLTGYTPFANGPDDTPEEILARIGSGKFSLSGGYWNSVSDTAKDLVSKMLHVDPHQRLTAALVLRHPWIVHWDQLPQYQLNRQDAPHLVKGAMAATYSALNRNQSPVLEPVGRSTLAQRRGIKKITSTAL
Further: in the data inactive means no Kd found up to 30 µM.

Casein kinase I isoform gamma-1, sequence (Q9HCP0 whole entry, canonical isoform): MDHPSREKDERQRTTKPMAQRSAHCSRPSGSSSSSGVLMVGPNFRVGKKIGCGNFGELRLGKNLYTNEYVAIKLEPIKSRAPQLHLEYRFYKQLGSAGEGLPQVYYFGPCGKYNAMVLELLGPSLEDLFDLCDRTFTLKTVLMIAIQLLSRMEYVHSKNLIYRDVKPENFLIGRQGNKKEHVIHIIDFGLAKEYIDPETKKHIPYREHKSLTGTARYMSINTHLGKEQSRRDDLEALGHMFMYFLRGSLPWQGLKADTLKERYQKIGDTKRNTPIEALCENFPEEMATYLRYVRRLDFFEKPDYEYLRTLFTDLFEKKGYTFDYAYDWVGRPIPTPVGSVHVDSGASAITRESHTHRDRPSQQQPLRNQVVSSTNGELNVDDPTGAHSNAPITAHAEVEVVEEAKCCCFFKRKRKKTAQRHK
Activin receptor type-2B, sequence (Q13705 whole entry, canonical isoform): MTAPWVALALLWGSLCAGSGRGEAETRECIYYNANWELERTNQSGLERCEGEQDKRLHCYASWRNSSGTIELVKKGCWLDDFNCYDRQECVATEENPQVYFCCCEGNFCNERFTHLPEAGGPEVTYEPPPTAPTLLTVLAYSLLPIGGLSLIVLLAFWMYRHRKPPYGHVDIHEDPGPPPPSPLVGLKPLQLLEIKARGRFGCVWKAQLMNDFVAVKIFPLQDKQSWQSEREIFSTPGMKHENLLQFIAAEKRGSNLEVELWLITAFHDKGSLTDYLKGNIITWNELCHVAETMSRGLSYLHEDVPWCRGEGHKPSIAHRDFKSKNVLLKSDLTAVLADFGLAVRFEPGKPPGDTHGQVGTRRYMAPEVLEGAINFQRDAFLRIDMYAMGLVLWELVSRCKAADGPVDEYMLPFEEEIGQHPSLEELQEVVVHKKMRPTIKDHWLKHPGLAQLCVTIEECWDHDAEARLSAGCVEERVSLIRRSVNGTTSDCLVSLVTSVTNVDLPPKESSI

| SMILES | Kd (Activin receptor type-2B) | Kd [1] | Kd [2] | Kd [3] | Kd [4] | Kd (Glycine--tRNA ligase) | Kd [5] | Kd [6] | Kd [7] | Kd (Rab-like protein 3) | Kd [8] |
| --- | --- | --- | --- | --- | --- | --- | --- | --- | --- | --- | --- |
| Cc1cc(Nc2ncnc3ccc(NC4=NC(C)(C)CO4)cc23)ccc1Oc1ccn2ncnc2c1 [TUCATINIB] | > 30 µM (inactive) | > 30 µM (inactive) | > 30 µM (inactive) | 2.53 µM (active) | > 30 µM (inactive) | > 30 µM (inactive) | > 30 µM (inactive) | > 30 µM (inactive) | > 30 µM (inactive) | > 30 µM (inactive) | > 30 µM (inactive) |
| Cn1ncc(Cl)c1-c1cc(C(=O)N[C@H](CN)Cc2ccc(F)c(F)c2)oc1Cl [UPROSERTIB] | > 30 µM (inactive) | > 30 µM (inactive) | > 30 µM (inactive) | > 30 µM (inactive) | > 30 µM (inactive) | > 30 µM (inactive) | > 30 µM (inactive) | > 30 µM (inactive) | > 30 µM (inactive) | > 30 µM (inactive) | > 30 µM (inactive) |
| C[C@@H](N)c1ccc(C(=O)Nc2ccnc3[nH]ccc23)cc1 [Y-39983] | > 30 µM (inactive) | > 30 µM (inactive) | > 30 µM (inactive) | > 30 µM (inactive) | > 30 µM (inactive) | > 30 µM (inactive) | > 30 µM (inactive) | > 30 µM (inactive) | > 30 µM (inactive) | > 30 µM (inactive) | > 30 µM (inactive) |
| CN1C/C=C/CCOc2cccc(c2)-c2ccnc(n2)Nc2cccc(c2)C1 [ZOTIRACICLIB] | > 30 µM (inactive) | > 30 µM (inactive) | > 30 µM (inactive) | 79.9 µM | > 30 µM (inactive) | > 30 µM (inactive) | > 30 µM (inactive) | > 30 µM (inactive) | > 30 µM (inactive) | > 30 µM (inactive) | > 30 µM (inactive) |
